Measurements published in US20230398130A1, “METHODS AND COMPOSITIONS FOR DIFFERENTIATING STEM CELLS” (Massachusetts Institute of Technology, priority 2020, published 2023).

Assays:
[1] = tested on: ISC-enriched organoids; assay: Primary screen, 384-well 2.5-D organoid differentiation (ENR+CD, 6 days): basal lysozyme secretion (LYZ.NS); format: cell-based, murine; details: for Dose.FC.LYZ.NS / Z.LYZ.NS / SSMD.LYZ.NS: primary screen; for Dose.FC.LYZ.NS: FC vs plate median; for SSMD.LYZ.NS: strictly standardized mean difference
Description: (§1) High-throughput screening.

[2] = tested on: ISC-enriched organoids; assay: Primary screen, 384-well 2.5-D organoid differentiation (ENR+CD, 6 days): carbachol-induced lysozyme secretion (LYZ.S); format: cell-based, murine; details: for Dose.FC.LYZ.S / Z.LYZ.S / SSMD.LYZ.S: primary screen; for Dose.FC.LYZ.S: FC vs plate median; for Z.LYZ.S: standard z score; for SSMD.LYZ.S: strictly standardized mean difference
Description: as §1

[3] = tested on: ISC-enriched organoids; assay: Primary screen, 384-well 2.5-D organoid differentiation (ENR+CD, 6 days, Target Selective Inhibitor Library, vs whole-plate median): ATP (CellTiter-Glo 3D, CTG); details: for Dose.FC.CTG / Z.CTG / SSMD.CTG: primary screen; for Dose.FC.CTG: FC vs plate median; for SSMD.CTG: strictly standardized mean difference
[4] = Dose 10.00 uM, standard z score
[5] = 1st of the 4 dose lines of the treatment (dose not given)
[6] = 2nd of the 4 dose lines of the treatment (dose not given)
[7] = 3rd of the 4 dose lines of the treatment (dose not given)
[8] = 4th of the 4 dose lines of the treatment (dose not given)
[9] = dose 0.08 uM (1st of 4 lines per treatment; dose not printed in this part)
[10] = dose 0.40 uM (2nd of 4 lines per treatment; dose not printed in this part)
[11] = dose 2.00 uM (3rd of 4 lines per treatment; dose not printed in this part)
[12] = dose 10.00 uM (4th of 4 lines per treatment; dose not printed in this part)
[13] = dose 0.08 uM, standard z score of FC
[14] = dose 0.40 uM, standard z score of FC
[15] = dose 2.00 uM, standard z score of FC
[16] = dose 10.00 uM, standard z score of FC

Question: How did the Dose.FC.LYZ.NS ([1]; Dose 0.08 uM) turn out when Cc1c(C(=O)Nc2ccc(N3C[C@@H](C)O[C@@H](C)C3)nc2)cccc1-c1ccc(OC(F)(F)F)cc1 [LDE225 (NVP-LDE225, Erismodegib)] was run?
Answer: 0.085 log 2 fold change

Question: And the Z.LYZ.NS ([1]; Dose 0.08 uM, standard z score)?
Answer: 0.739

Question: And the Dose.FC.LYZ.NS ([1]; Dose 0.40 uM)?
Answer: 0.101 log 2 fold change

Question: And the Z.LYZ.NS ([1]; Dose 0.40 uM, standard z score)?
Answer: 0.881

Question: What about the Dose.FC.LYZ.NS ([1]; Dose 2.00 uM) of the same molecule?
Answer: 0.011 log 2 fold change

Question: What about the Z.LYZ.NS ([1]; Dose 2.00 uM, standard z score) of the same molecule?
Answer: 0.094

Question: And the Dose.FC.LYZ.NS ([1]; Dose 10.00 uM)?
Answer: 0.049 log 2 fold change

Question: What about the Z.LYZ.NS [1, 4] of the same molecule?
Answer: 0.426

Question: And the SSMD.LYZ.NS [1, 5]?
Answer: 0.869

Question: And the SSMD.LYZ.NS [1, 6]?
Answer: 0.731

Question: What about the SSMD.LYZ.NS [1, 7] of the same molecule?
Answer: 0.074

Question: What about the SSMD.LYZ.NS [1, 8] of the same molecule?
Answer: 0.268

Question: What about the Dose.FC.LYZ.S ([2]; Dose 0.08 uM) of the same molecule?
Answer: 0.095 log 2 fold change

Question: What about the Dose.FC.LYZ.S ([2]; Dose 0.40 uM) of the same molecule?
Answer: 0.074 log 2 fold change

Question: And the Dose.FC.LYZ.S ([2]; Dose 2.00 uM)?
Answer: 0.002 log 2 fold change

Question: And the Dose.FC.LYZ.S ([2]; Dose 10.00 uM)?
Answer: 0.006 log 2 fold change

Question: And the Z.LYZ.S [2, 5]?
Answer: 0.613

Question: And the Z.LYZ.S [2, 6]?
Answer: 0.481

Question: What about the Z.LYZ.S [2, 7] of the same molecule?
Answer: 0.013

Question: And the Z.LYZ.S [2, 8]?
Answer: 0.038

Question: What about the SSMD.LYZ.S [2, 5] of the same molecule?
Answer: 0.704

Question: What about the SSMD.LYZ.S [2, 6] of the same molecule?
Answer: 0.415

Question: What about the SSMD.LYZ.S [2, 7] of the same molecule?
Answer: 0.013

Question: And the SSMD.LYZ.S [2, 8]?
Answer: 0.025

Question: And the Dose.FC.CTG ([3]; Dose 0.08 uM)?
Answer: 0.107 log 2 fold change

Question: What about the Z.CTG ([3]; Dose 0.08 uM, standard z score) of the same molecule?
Answer: 0.255

Question: What about the Dose.FC.CTG ([3]; Dose 0.40 uM) of the same molecule?
Answer: 0.067 log 2 fold change

Question: And the Z.CTG ([3]; Dose 0.40 uM, standard z score)?
Answer: 0.159

Question: What about the Dose.FC.CTG ([3]; Dose 2.00 uM) of the same molecule?
Answer: 0.229 log 2 fold change

Question: And the Z.CTG ([3]; Dose 2.00 uM, standard z score)?
Answer: 0.546

Question: What about the Dose.FC.CTG ([3]; Dose 10.00 uM) of the same molecule?
Answer: −0.001 log 2 fold change

Question: And the Z.CTG [3, 4]?
Answer: −0.002

Question: And the SSMD.CTG [3, 5]?
Answer: 0.313

Question: And the SSMD.CTG [3, 6]?
Answer: 0.163

Question: What about the SSMD.CTG [3, 7] of the same molecule?
Answer: 0.681

Question: And the SSMD.CTG [3, 8]?
Answer: −0.001

Question: What does the source list for N#Cc1c(O)c2c(-c3ccc(-c4ccccc4O)cc3)csc2[nH]c1=O [A-769662]?
Answer: SSMD.LYZ.NS_Rep (strictly standardized mean difference) [1, 9]: 0.286; SSMD.LYZ.NS_Rep (strictly standardized mean difference) [1, 10]: 0.498; SSMD.LYZ.NS_Rep (strictly standardized mean difference) [1, 11]: 0.554; SSMD.LYZ.NS_Rep (strictly standardized mean difference) [1, 12]: 0.068; Dose.FC.LYZ.NS ([1]; dose 0.08 uM, ENR+CD 6 days): 0.045 log 2 fold change; Z.LYZ.NS [1, 13]: 0.394; Dose.FC.LYZ.NS ([1]; dose 0.40 uM, ENR+CD 6 days): 0.069 log 2 fold change; Z.LYZ.NS [1, 14]: 0.599; Dose.FC.LYZ.NS ([1]; dose 2.00 uM, ENR+CD 6 days): 0.054 log 2 fold change; Z.LYZ.NS [1, 15]: 0.473; Dose.FC.LYZ.NS ([1]; dose 10.00 uM, ENR+CD 6 days): 0.009 log 2 fold change; Z.LYZ.NS [1, 16]: 0.075; SSMD.LYZ.S_Rep (strictly standardized mean difference) [2, 9]: 0.365; Z.LYZ.S (standard z score) [2, 9]: 0.426; SSMD.LYZ.S_Rep (strictly standardized mean difference) [2, 10]: 0.472; Z.LYZ.S (standard z score) [2, 10]: 0.460; SSMD.LYZ.S_Rep (strictly standardized mean difference) [2, 11]: 0.488; Z.LYZ.S (standard z score) [2, 11]: 1.191; SSMD.LYZ.S_Rep (strictly standardized mean difference) [2, 12]: 0.119; Z.LYZ.S (standard z score) [2, 12]: 0.121; Dose.FC.LYZ.S ([2]; dose 0.08 uM, ENR+CD 6 days): 0.066 log 2 fold change; Dose.FC.LYZ.S ([2]; dose 0.40 uM, ENR+CD 6 days): 0.071 log 2 fold change; Dose.FC.LYZ.S ([2]; dose 2.00 uM, ENR+CD 6 days): 0.184 log 2 fold change; Dose.FC.LYZ.S ([2]; dose 10.00 uM, ENR+CD 6 days): 0.019 log 2 fold change; SSMD.CTG_Rep (strictly standardized mean difference) [3, 9]: −0.255; SSMD.CTG_Rep (strictly standardized mean difference) [3, 10]: 0.019; SSMD.CTG_Rep (strictly standardized mean difference) [3, 11]: −0.312; SSMD.CTG_Rep (strictly standardized mean difference) [3, 12]: −0.056; Dose.FC.CTG ([3]; dose 0.08 uM, ENR+CD 6 days): −0.074 log 2 fold change; Z.CTG [3, 13]: −0.177; Dose.FC.CTG ([3]; dose 0.40 uM, ENR+CD 6 days): 0.007 log 2 fold change; Z.CTG [3, 14]: 0.016; Dose.FC.CTG ([3]; dose 2.00 uM, ENR+CD 6 days): −0.127 log 2 fold change; Z.CTG [3, 15]: −0.304; Dose.FC.CTG ([3]; dose 10.00 uM, ENR+CD 6 days): −0.015 log 2 fold change; Z.CTG [3, 16]: −0.036

Question: For CCOC(=O)N1CCC(=C2c3ccc(Cl)cc3CCc3cccnc32)CC1 [Loratadine], which SSMD.LYZ.NS [1, 5] is on record?
Answer: 0.098

Question: And the SSMD.LYZ.NS [1, 6]?
Answer: −0.004

Question: What about the SSMD.LYZ.NS [1, 7] of the same molecule?
Answer: −0.783

Question: What about the SSMD.LYZ.NS [1, 8] of the same molecule?
Answer: −0.977

Question: And the Z.LYZ.S [2, 5]?
Answer: −0.490

Question: And the Z.LYZ.S [2, 6]?
Answer: 0.069

Question: What about the Z.LYZ.S [2, 7] of the same molecule?
Answer: −0.959

Question: And the Z.LYZ.S [2, 8]?
Answer: −0.956

Question: And the SSMD.LYZ.S [2, 5]?
Answer: −0.535

Question: What about the SSMD.LYZ.S [2, 6] of the same molecule?
Answer: 0.082

Question: What about the SSMD.LYZ.S [2, 7] of the same molecule?
Answer: −0.811

Question: What about the SSMD.LYZ.S [2, 8] of the same molecule?
Answer: −1.029

Question: And the Z.CTG ([3]; Dose 0.08 uM, standard z score)?
Answer: −0.697

Question: What about the Z.CTG ([3]; Dose 0.40 uM, standard z score) of the same molecule?
Answer: 0.347

Question: What about the Z.CTG ([3]; Dose 2.00 uM, standard z score) of the same molecule?
Answer: −0.488

Question: What about the Z.CTG [3, 4] of the same molecule?
Answer: −0.287

Question: And the SSMD.CTG [3, 5]?
Answer: −0.683

Question: What about the SSMD.CTG [3, 6] of the same molecule?
Answer: 0.535

Question: And the SSMD.CTG [3, 7]?
Answer: −0.609

Question: What about the SSMD.CTG [3, 8] of the same molecule?
Answer: −0.360
